Measurements taken from BindingDB's records for patent US12065447 (Shanghai Institute of Materia Medica, 2024).

These compounds were tested against T1, Receptor-interacting serine/threonine-protein kinase 1 (Homo sapiens, UniProt Q13546) (assay: Cell Viability Test).
T1 sequence (Q13546 whole entry): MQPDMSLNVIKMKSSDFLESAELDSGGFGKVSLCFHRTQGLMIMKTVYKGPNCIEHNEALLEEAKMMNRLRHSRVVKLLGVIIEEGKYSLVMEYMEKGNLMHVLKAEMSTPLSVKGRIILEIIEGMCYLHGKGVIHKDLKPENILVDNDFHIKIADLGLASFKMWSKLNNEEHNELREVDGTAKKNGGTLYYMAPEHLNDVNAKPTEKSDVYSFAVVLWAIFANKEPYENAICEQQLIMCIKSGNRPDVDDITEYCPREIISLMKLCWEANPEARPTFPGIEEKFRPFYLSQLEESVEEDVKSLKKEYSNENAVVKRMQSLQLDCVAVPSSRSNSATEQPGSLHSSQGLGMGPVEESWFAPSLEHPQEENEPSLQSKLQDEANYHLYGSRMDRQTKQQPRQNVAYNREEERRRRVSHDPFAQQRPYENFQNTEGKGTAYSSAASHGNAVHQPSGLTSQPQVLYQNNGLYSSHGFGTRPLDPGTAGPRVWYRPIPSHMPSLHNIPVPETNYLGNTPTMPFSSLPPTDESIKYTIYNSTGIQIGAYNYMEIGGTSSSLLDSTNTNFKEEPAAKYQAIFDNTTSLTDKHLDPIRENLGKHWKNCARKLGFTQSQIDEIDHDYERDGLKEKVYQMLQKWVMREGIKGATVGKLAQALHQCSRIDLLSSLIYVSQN
Text: TNFalpha induced U937 cell programmed necroptosis system was used to screen for compounds with RIP 1 kinase inhibitory activity.

SMILES	IC50
CN1C(=O)[C@@H](NC(=O)c2ncc(Cc3ccccc3)o2)COc2ccc(C#Cc3cccnc3)cc21 [US12065447, Compound ZB-R-20]	< 0.5 nM
CN1C(=O)[C@@H](NC(=O)c2ncn(Cc3ccccc3)n2)COc2ccc(C#Cc3cccnc3)cc21 [US12065447, Compound ZB-R-24]	< 1 nM
CN1C(=O)[C@@H](NC(=O)c2cc(Cc3ccccc3)ccn2)COc2ccc(C#Cc3cccnc3)cc21 [US12065447, Compound ZB-R-25]	< 2 nM
Cc1c(C#Cc2cnn(C)c2)sc2c1SC[C@H](NC(=O)c1nnc(Cc3ccccc3)[nH]1)C(=O)N2C [US12065447, Compound ZB-R-39]	0.17 nM
Cc1c(C#Cc2cccnc2)sc2c1SC[C@H](NC(=O)c1nnc(Cc3ccccc3)[nH]1)C(=O)N2C [US12065447, Compound ZB-R-42]	0.32 nM
Cc1c(C#CC2CCOCC2)sc2c1SC[C@H](NC(=O)c1nnc(Cc3ccccc3)[nH]1)C(=O)N2C [US12065447, Compound ZB-R-44]	4.08 nM
Cc1c(C#CC2CC2)sc2c1SC[C@H](NC(=O)c1nnc(Cc3ccccc3)[nH]1)C(=O)N2C [US12065447, Compound ZB-R-45]	8.13 nM
Cc1c(C#Cc2ccccn2)sc2c1SC[C@H](NC(=O)c1nnc(Cc3ccccc3)[nH]1)C(=O)N2C [US12065447, Compound ZB-R-46]	5.39 nM
Cc1c(C#Cc2ccncc2)sc2c1SC[C@H](NC(=O)c1nnc(Cc3ccccc3)[nH]1)C(=O)N2C [US12065447, Compound ZB-R-47]	0.39 nM
CN1C(=O)[C@@H](NC(=O)c2n[nH]c(Cc3ccccc3)n2)COc2ccc(C#Cc3ccccn3)cc21 [US12065447, Compound ZB-R-50]	0.26 nM
CN1C(=O)[C@@H](NC(=O)c2n[nH]c(Cc3ccccc3)n2)COc2ccc(C#Cc3cccnc3)cc21 [US12065447, Compound ZB-R-51]	< 0.5 nM
CN1C(=O)[C@@H](NC(=O)c2n[nH]c(Cc3ccccc3)n2)COc2ccc(C#Cc3ccncc3)cc21 [US12065447, Compound ZB-R-52]	0.42 nM
CN1C(=O)[C@@H](NC(=O)c2n[nH]c(Cc3ccccc3)n2)COc2ccc(C#Cc3cnn(C)c3)cc21 [US12065447, Compound ZB-R-53]	0.11 nM
CN1C(=O)[C@@H](NC(=O)c2n[nH]c(Cc3ccccc3)n2)COc2ccc(C#CC3CCOCC3)cc21 [US12065447, Compound ZB-R-54]	0.1 nM
COCC#Cc1ccc2c(c1)N(C)C(=O)[C@@H](NC(=O)c1nnc(Cc3ccccc3)[nH]1)CO2 [US12065447, Compound ZB-R-68]	0.2 nM
CN1C(=O)[C@@H](NC(=O)c2n[nH]c(Cc3ccccc3)n2)COc2ccc(C#CC(C)(C)O)cc21 [US12065447, Compound ZB-R-76]	0.54 nM
CN1C(=O)[C@@H](NC(=O)c2n[nH]c(Cc3ccccc3)n2)COc2ccc(C#CC3(O)COC3)cc21 [US12065447, Compound ZB-R-78]	0.35 nM
Cc1cc([C@](C)(O)C#Cc2ccc3c(c2)N(C)C(=O)[C@@H](NC(=O)c2nnc(Cc4ccccc4)[nH]2)CO3)no1 [US12065447, Compound ZB-R-80]	0.31 nM
Cc1cc([C@@](C)(O)C#Cc2ccc3c(c2)N(C)C(=O)[C@@H](NC(=O)c2nnc(Cc4ccccc4)[nH]2)CO3)no1 [US12065447, Compound ZB-R-81]	0.29 nM
Cc1c(C#Cc2cncn2C)sc2c1SC[C@H](NC(=O)c1nnc(Cc3ccccc3)[nH]1)C(=O)N2C [US12065447, Compound ZB-R-82]	0.3 nM
COCC#Cc1sc2c(c1C)SC[C@H](NC(=O)c1nnc(Cc3ccccc3)[nH]1)C(=O)N2C [US12065447, Compound ZB-R-84]	0.19 nM
Cc1c(C#CC(C)(C)O)sc2c1SC[C@H](NC(=O)c1nnc(Cc3ccccc3)[nH]1)C(=O)N2C [US12065447, Compound ZB-R-85]	1.09 nM
Cc1c(C#CC2(O)COC2)sc2c1SC[C@H](NC(=O)c1nnc(Cc3ccccc3)[nH]1)C(=O)N2C [US12065447, Compound ZB-R-87]	0.2 nM
Cc1cc([C@](C)(O)C#Cc2sc3c(c2C)SC[C@H](NC(=O)c2nnc(Cc4ccccc4)[nH]2)C(=O)N3C)no1 [US12065447, Compound ZB-R-89]	1.7 nM
